The results in this text go back to PubChem BioAssay AID1963986 (Molecular Pharmacology Branch, DTP, NCI, 2024).

One may read the viability, T/C as the ratio of treated to control. As usually defined, the IC50 is the concentration that gives 50% inhibition.

“And” between values parts separate entries of the source, which are not always exact repeats. Identical values can stand only once.

In this experiment the test system is 171881-019-R-J1-PDC tumor spheroid viability. In words: Anticancer human tumor 171881-019-R-J1-PDC patient-derived invasive breast carcinoma cell line growth inhibition [PI3K]. Conditions: spheroids with HUVEC and MSC; for viability, T/C: stronger effect = lower value. The text has this:
Combinatorial screen of targeted agents with the PI3K inhibitors inavolisib, alpelisib, duvelisib, and copanlisib in multi-cell type tumor spheroids
A high-throughput screen of multi-cell type tumor spheroids was designed to identify active combinations of targeted small molecules and PI3K pathway inhibitors. Complex spheroids include a stromal component modeled by human endothelial cells (HUVEC) and fibroblasts modeled by human mesenchymal stem cells (MSCs). The concentration ranges selected for each drug and investigational agent were based upon clinically achievable concentrations if the clinical Cmax of the agent was known.
Compounds. The drugs and investigational agents: inavolisib (NSC800729), alpelisib (NSC765974), duvelisib (NSC772469), copanlisib (NSC816437), ipatasertib (NSC767898), afuresertib (NSC778305), talazoparib (NSC767125), sapanisertib (NSC764658), selumetinib (NSC741078), tovorafenib (DAY101, NSC766906), vemurafenib (NSC761431), ravoxertinib (NSC781343), sotorasib (NSC818433), MRTX1133 (NSC 836407), abemaciclib (NSC 768073), palbociclib (NSC758247), venetoclax (NSC 766270), SY5609 (NSC837396), enzalutamide (NSC755605), and darolutamide (NSC825331), were obtained from the National Cancer Institute (NCI) Developmental Therapeutics Program Chemical Repository. The FDA-approved anticancer drug set is available from the NCI Developmental Therapeutics Program. […] The stock solutions were prepared in dimethyl sulfoxide (DMSO, Sigma-Aldrich, St. Louis, MO, cat. D2650) at 800-fold the tested concentration and stored at -70 degrees C prior to their use. All drugs and investigational agents were tested over a range starting from a high concentration at or near the clinical Cmax and decreasing in half-log increments. If the clinical Cmax for an agent had not been determined, the highest concentration tested was 10 microM.
Cell Culture. All cells were maintained in an incubator at 37 degrees C and 5% CO2 with 95% humidity. The PDC lines were cultured according to standard operating procedures established by the NCI PDMR (https://pdmr.cancer.gov/sops/default.htm). All PDCs were thawed and cultured in Matrigel-coated flasks prepared with a working solution of 1X Ham's F-12 nutrient mix, without supplementation (Invitrogen, Waltham, MA, cat. 11765054), 100 U/mL penicillin-streptomycin (Invitrogen, cat. 15140122), and 2.5% Matrigel (Corning Inc., Corning, NY, cat. 354248) for the first three passages. The 354836-022-R-J1-PDC, 475296-252-R-J1-PDC, and 997726-040-R-J2-PDC lines were cultured in 6A media, which includes advanced DMEM/F-12 (Thermo Fisher Scientific, cat. 12634028), 10 mM HEPES (Thermo Fisher Scientific, cat. 15630080), 1X GlutaMAX supplement (Thermo Fisher Scientific, cat. 35050061), 0.1 mg/mL primocin (InvivoGen, San Diego, CA, cat. ant-pm-2), 10% defined fetal bovine serum, heat inactivated (HyClone Laboratories Inc., Logan, UT, cat. SH30070.03HI), 50% L-WRN conditioned media (ATCC, cat. CRL-3276), 1.25 mM N-Acetyl-L-cysteine (Sigma-Aldrich, cat. A9165), 10 mM nicotinamide (Sigma-Aldrich, cat. N0636), 1X B-27 supplement (Thermo Fisher Scientific, cat. 17504044), 1X N-2 supplement (Thermo Fisher Scientific, cat. 17502048), and 10 microM Y-27632 dihydrochloride (Tocris Bioscience, Bristol, United Kingdom, cat. 1254). The 624824-186-R-J2-PDC line was cultured in 6C/Colon 1B media, which includes all 6A media components plus 50 ng/mL human EGF recombinant protein (Thermo Fisher Scientific, cat. PHG0311). […]

Where [1] appears, read: compound alone, run of 05/08/2023.
[2] abbreviates: compound alone, run of 05/09/2023.
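Further: spheroids exposed to compound for 7 days before viability read.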

On to `CC(=O)c1c(C)c2cnc(Nc3ccc(N4CCNCC4)cn3)nc2n(C2CCCC2)c1=O`, for which the viability, T/C was 91.8% [middle of 4 runs] (compound 0.000316 µM); 85.3% [middle of 4 runs] (compound 0.001 µM); 97% [middle of 4 runs] (compound 0.00316 µM); 99.2% [middle of 4 runs] (compound 0.01 µM); 108% [middle of 4 runs] (compound 0.0316 µM); 88.7% [middle of 4 runs] (compound 0.1 µM). Moreover, the IC50 (curve of compound) is above 100 nM.
On to `CC(C)NCC(C(=O)N1CCN(c2ncnc3c2C(C)CC3O)CC1)c1ccc(Cl)cc1` (stereo unspecified), for which the viability, T/C reads like this: (compound 0.0316 µM) 85.8% [middle of 4 runs]; (compound 0.1 µM) 76.4% [middle of 4 runs]; (compound 0.316 µM) 57.3% (2×) and 54.7% and 53.9%; (compound 1 µM) 27.4% [middle of 4 runs]; (compound 3.16 µM) 17.1% [middle of 4 runs]; (compound 10 µM) 9.96% [middle of 4 runs]. The IC50 (curve of compound) was 376 nM [middle of 4 runs].
Turning to `CC(C)n1nc(-c2ccc3oc(N)nc3c2)c2c(N)ncnc21`, the viability, T/C is 76.3% and 86.4% and 84.6% (2×) (compound 0.001 µM); 78.9% [middle of 4 runs] (compound 0.00316 µM); 53.9% [middle of 4 runs] (compound 0.01 µM); 24% [middle of 4 runs] (compound 0.0316 µM); 3.78% [middle of 4 runs] (compound 0.1 µM). For the setting “curve of compound”, the IC50 was 11.9 nM [middle of 4 runs].
Turning to `CC(Nc1ccc2c(c1)OCCn1cc(N3C(=O)OCC3C(F)F)nc1-2)C(N)=O` (stereo unspecified), the viability, T/C is 94.1% [middle of 8 runs] (compound 0.00316 µM); 83.8% [middle of 8 runs] (compound 0.01 µM); 56.6% [middle of 8 runs] (compound 0.0316 µM); 40.9% [middle of 8 runs] (compound 0.1 µM); 28% [middle of 8 runs] (compound 0.316 µM); 21.4% [middle of 8 runs] (compound 1 µM). Further, the IC50 under setting [1] was 52.5 nM [middle of 8 runs].
In the case of `CC(Nc1ncnc2nc[nH]c12)c1cc2cccc(Cl)c2c(=O)n1-c1ccccc1` (stereo unspecified), the viability, T/C (compound 0.0316 µM) was 90% [middle of 8 runs]; the viability, T/C (compound 0.1 µM) is 97.5% [middle of 8 runs]; the viability, T/C (compound 0.316 µM) was 99.2% [middle of 8 runs]; the viability, T/C (compound 1 µM) was 100% [middle of 8 runs]; the viability, T/C (compound 3.16 µM) is 87.8% [middle of 8 runs]; the viability, T/C (compound 10 µM) is 59.8% [middle of 8 runs]. The IC50 under setting [2] was above 10000 nM.
As for `CC1(C)CCC(CN2CCN(c3ccc(C(=O)NS(=O)(=O)c4ccc(NCC5CCOCC5)c([N+](=O)[O-])c4)c(Oc4cnc5[nH]ccc5c4)c3)CC2)=C(c2ccc(Cl)cc2)C1`, the viability, T/C is 90.2% [middle of 4 runs] (compound 0.0316 µM), 87.8% [middle of 4 runs] (compound 0.1 µM), 86.9% [middle of 4 runs] (compound 1 µM) and 63.4% [middle of 4 runs] (compound 3.16 µM).
Regarding `CCCS(=O)(=O)Nc1ccc(F)c(C(=O)c2c[nH]c3ncc(-c4ccc(Cl)cc4)cc23)c1F`, the viability, T/C was 91.5% [middle of 4 runs] (compound 0.0316 µM); 91.1% [middle of 4 runs] (compound 0.1 µM); 101% (2×) and 103% and 90.9% (compound 0.316 µM); 99.5% [middle of 4 runs] (compound 1 µM); 89.8% [middle of 4 runs] (compound 3.16 µM); 16.1% [middle of 4 runs] (compound 10 µM). Moreover, the IC50 (curve of compound) was 5.64 µM [middle of 4 runs].
For `CCN1CCN(Cc2ccc(Nc3ncc(F)c(-c4cc(F)c5nc(C)n(C(C)C)c5c4)n3)nc2)CC1`, the viability, T/C is 98.7% [middle of 4 runs] (compound 0.00316 µM); 99.5% [middle of 4 runs] (compound 0.01 µM); 95.2% and 108% (2×) and 103% (compound 0.0316 µM); 107% [middle of 4 runs] (compound 0.1 µM); 115% [middle of 4 runs] (compound 0.316 µM); 122% [middle of 4 runs] (compound 1 µM). Besides, the IC50 (curve of compound) is above 1000 nM.
Turning to `COc1c(OCCCN2CCOCC2)ccc2c3n(c(=NC(=O)c4cnc(N)nc4)nc12)CCN3`, the viability, T/C (compound 0.00316 µM) is 69.1% [middle of 8 runs]; the viability, T/C (compound 0.01 µM) was 46.5% [middle of 8 runs]; the viability, T/C (compound 0.0316 µM) is 25.6% [middle of 8 runs]; the viability, T/C (compound 0.1 µM) was 7.84% [middle of 8 runs]; the viability, T/C (compound 0.316 µM) was 1.95% [middle of 8 runs]; the viability, T/C (compound 1 µM) is 1.25% [middle of 7 runs]. The IC50 under setting [2] is 8.74 nM [middle of 8 runs].
Turning to `C[C@@H](NC(=O)c1ncnc(N)c1Cl)c1ncc(C(=O)Nc2cc(C(F)(F)F)c(Cl)cn2)s1`, the viability, T/C is 91.1% [middle of 4 runs] (compound 0.0316 µM); 89.8% [middle of 4 runs] (compound 0.1 µM); 90.8% [middle of 4 runs] (compound 0.316 µM); 83.6% [middle of 4 runs] (compound 1 µM); 72.5% [middle of 4 runs] (compound 3.16 µM); 49.5% [middle of 4 runs] (compound 10 µM).
With `Cc1nc(NC(=O)N2CCCC2C(N)=O)sc1-c1ccnc(C(C)(C)C(F)(F)F)c1` (stereo unspecified), the viability, T/C reads like this: (compound 0.0316 µM) 89.2% [middle of 8 runs]; (compound 0.1 µM) 86.3% [middle of 8 runs]; (compound 0.316 µM) 57.4% [middle of 8 runs]; (compound 1 µM) 33.8% [middle of 8 runs]; (compound 3.16 µM) 14.5% [middle of 8 runs]; (compound 10 µM) 3.58% [middle of 7 runs]. The IC50 under setting [1] is 475 nM [middle of 7 runs].
Take `Cn1cnc2c(F)c(Nc3ccc(Br)cc3Cl)c(C(=O)NOCCO)cc21`: the viability, T/C runs as follows: (compound 0.00949 µM) 90.4% [middle of 4 runs]; (compound 0.03 µM) 83.8% [middle of 4 runs]; (compound 0.0949 µM) 80.9% [middle of 4 runs]; (compound 0.3 µM) 64.1% [middle of 4 runs]; (compound 0.949 µM) 42.6% [middle of 4 runs]; (compound 3 µM) 19% [middle of 4 runs]. Besides, where the note is “curve of compound”, the IC50 is 653 nM [middle of 4 runs].
Turning to `Cn1ncnc1[C@H]1c2n[nH]c(=O)c3cc(F)cc(c23)N[C@@H]1c1ccc(F)cc1`, the viability, T/C was 92.5% [middle of 4 runs] (compound 0.000316 µM); 93.2% [middle of 4 runs] (compound 0.001 µM); 97.5% [middle of 4 runs] (compound 0.00316 µM); 98.2% [middle of 4 runs] (compound 0.01 µM); 97.7% [middle of 4 runs] (compound 0.0316 µM); 87% [middle of 4 runs] (compound 0.1 µM). In addition, for the setting “curve of compound”, the IC50 is above 100 nM.
